Measurements from patent US11174299B2, “Peptides and compositions for prevention of cell adhesion and methods of using same” (D[…]., priority 2008, dated 2021).

Legend:
[1] = tested on: Pseudomonas aeruginosa; assay: Prevention of Pseudomonas aeruginosa attachment by synthetic peptides; type: cell-based; conditions: for anti adherence activity on P. aeruginosa: FIG. 3
Description: The synthetic peptide grZ28C [[…] (SEQ ID NO: 1)] gave approximately 50% prevention of Pseudomonas aeruginosa attachment at three concentrations: 50, 5 and 0.5 μg/ml (FIG. 1). The activity was similar to that of the AbacZ17C, peptide based on the anemone cytotoxin active region. Abac10C, which was used as a negative control peptide, was synthesized based on the N-terminal sequence of Abac17C, without the active residue [[…] (SEQ ID NO: 27)].
For peptide grZ35 cyc, the peptide sequence […] (SEQ ID NO: 6) which represents the extracellular region, residue 259-292, was synthesized with two Cysteines in the C and N termini and S—S bridged. For peptide grZ28C, the peptide sequence […] (SEQ ID NO: 3) which represents the extracellular region, residue 259-284, was synthesized with two Cysteines in C and N termini.

[2] = tested on: Pseudomonas aeruginosa; assay: Growth test on Pseudomonas aeruginosa; type: cell-based; conditions: FIG. 2, FIG. 4
[3] = tested on: P. aeruginosa strong biofilm producer strain 142; assay: Bacterial adhesion assay on contact lenses, P. aeruginosa strong biofilm producer strain 142; type: cell-based, Pseudomonas aeruginosa; conditions: PBS (No-TLF)
Description: (§1) The peptide APi1775 (gr14Z-BBC2) according to SEQ ID NO: 28 was immobilized onto Etafilcon A™ (Johnson & Johnson Vision Care Inc., Jacksonville, Fla., USA; Base curve: 8.7 mm, Diameter: 14.0 mm) contact lenses. […] The coating (covalently bonding the peptide to the surface of the contact lenses) procedure was performed by activating the surface of the contact lenses with carboxyl-reactive crosslinker reactive groups EDC (1-ethyl-3-(-3-dimethylaminopropyl) carbodiimide hydrochloride, MW 191.70) followed by incubation with APi1775 (gr14Z-BBC2) at 0.1 μM 1.0 μM and 10 μM peptide concentration. Peptide grZ14s-nyCyc-3PEG-Pal soaked (1 μM) contact lenses were used as positive control, this peptide is used for non-covalent coating of contact lenses.
(§2) Antimicrobial activity was determined against P. aeruginosa strain 6294 (isolated from a case of microbial keratitis), P. aeruginosa strong biofilm produces strain 142 (isolated from a case of microbial keratitis) and S. aureus strain 31 (isolated from a case of contact lens-induced peripheral ulcer) following established methods. Briefly, P. aeruginosa and S. aureus were grown overnight in tryptone soya broth (TSB; Oxoid, Basingstoke, UK) and re-suspended in 1/10 TSB and PBS respectively to an OD660 nm of 0.1 (1.0×10^8 colony-forming unit (CFU) per ml). The bacterial cell suspensions were then diluted to […] for adhesion assays. Non-coated control, process control, APi1775 peptide coated and grZ14s-nvCyc-3PEG-Pal soaked lenses were washed in PBS and transferred to 1 ml of bacterial suspension in 24 well tissue culture plates (CELESTAR®, Greiner bio-one, Frickenhausen, Germany), and incubated at 37° C. for 18 hours with shaking (120 rpm). For P. aeruginosa strain 6294, the assay was performed with PBS and tear Like Fluid (TFL), for P. aeruginosa strain 142 the assay was performed with PBS and for S. aureus the assay was performed using 1/10 TSB. Lenses were washed three times following incubation with PBS to remove loosely adhered bacteria, then stirred in a vortex mixer rapidly in 2 ml of fresh PBS containing a small magnetic stirring bar. The resulting slurry was serially diluted and 20 μl was added onto nutrient agar (TSA; Oxoid, Basingstoke, UK) for recovery of cells. After incubation at 37° C. for 18 hours, viable microorganisms were enumerated as CFU for each lens. Measurements were performed in triplicates for at least three occasions.
(§3) Data were analyzed using Microsoft Office Excel and Statistical Package for the Social Sciences software version 23.0 (SPSS, Inc., Chicago, Ill.). The bacterial adhesion data were log10 (x+1) transformed prior to analysis where x is the adherent bacteria CFU/lens. Bacterial adhesion, contact lens surface elemental composition, and contact lens parameters were analysed using an independent 2-sample t-test, and expressed with descriptive statistics. Statistical significance was set at 5%.

[4] = tested on: P. aeruginosa strain 6294; assay: Bacterial adhesion assay on contact lenses, P. aeruginosa strain 6294; type: cell-based, Pseudomonas aeruginosa; conditions: for log inhibition of P. aeruginosa 6294 adhesion: 18 hours; for percentage of inhibition of P. aeruginosa 6294 adhesion: TLF
Description: as §1, §2, §3

[5] = Dissolution of peptide in Phosphate Buffer Saline (visual inspection); type: physicochemical
[6] = tested on: Murine L929 cells; assay: In vitro cytotoxicity of immobilised contact lenses (ISO 10993-5, Trypan Blue); type: cell-based; conditions: peptide coated contact lenses (0.1, 1.0, 10.0 μM) on murine L929 monolayer, 24 h
Description: Testing in vitro cytotoxicity of APi1775 (gr14Z-BBC2) immobilised contact lenses was performed according to ISO standard 10993-5 standardized procedures. Murine L929 cells were grown to >80% confluency in 24 well tissue culture plates (CELESTAR®, Greiner bio-one, Frickenhausen, Germany) with DMEM cell culture media. The medium was aspirated and replaced with adequate fresh growth medium every 2-3 days. All the test and control contact lenses were washed with sterile PBS prior to the start of the study and then directly placed on the cell monolayer for examination of in vitro cytotoxicity. During this any cytotoxicity of the lenses will disrupt the normal functions of cells beneath and perhaps adjacent to the samples. The samples were incubated overnight at 37° C. with 5% CO2. After 24 hours, cells were stained with vital stain (Trypan Blue; Sigma-Aldrich, St Louis, Mo., USA) and cytotoxicity was assessed using bright field and phase-contrast microscopy. Cytotoxic responses are graded according to a standard key, which quantifies the viability and zonal extent. The samples were used in triplicates.

[7] = lens treated with 0.1 μM peptide
[8] = lens treated with 1.0 μM peptide
[9] = lens treated with 10.0 μM peptide
[10] = lens coated with 0.1 μM peptide, PBS
[11] = lens coated with 1.0 μM peptide, PBS
[12] = lens coated with 10.0 μM peptide, PBS

SFSQNKSVHSFDYDWYNVSDQADLKNQLGDAGYV (SEQ ID NO: 6) [grZ35 cyc]
anti adherence activity on P. aeruginosa [1]: anti adherence activity | effect on P. aeruginosa growth [2]: not inhibited

SVHSFDYDWYNV (SEQ ID NO: 28) (immobilized on Etafilcon A contact lens) [APi1775]
inhibition of bacterial adhesion, strain 142 [3, 7]: 44.73% | log inhibition of P. aeruginosa strain 142 adhesion [3, 7]: 0.26 log | inhibition of bacterial adhesion, strain 142 [3, 8]: 43.62% | log inhibition of P. aeruginosa strain 142 adhesion [3, 8]: 0.25 log | inhibition of bacterial adhesion, strain 142 [3, 9]: 77.80% | log inhibition of P. aeruginosa strain 142 adhesion [3, 9]: 0.65 log | percentage inhibition of P. aeruginosa 6294 adhesion [4, 10]: 77.1% | log inhibition of P. aeruginosa 6294 adhesion [4, 10]: 0.79 log | percentage inhibition of P. aeruginosa 6294 adhesion [4, 11]: 77.5% | log inhibition of P. aeruginosa 6294 adhesion [4, 11]: 0.83 log | percentage inhibition of P. aeruginosa 6294 adhesion [4, 12]: 47.7% | log inhibition of P. aeruginosa 6294 adhesion [4, 12]: 0.29 log | percentage of inhibition of P. aeruginosa 6294 adhesion [4, 7]: 31.76% | log inhibition of P. aeruginosa 6294 adhesion ([4]; lens treated with 0.1 μM peptide, Tear Like Fluid (TLF)): 0.17 log | percentage of inhibition of P. aeruginosa 6294 adhesion [4, 8]: 80.40% | log inhibition of P. aeruginosa 6294 adhesion ([4]; lens treated with 1.0 μM peptide, Tear Like Fluid (TLF)): 0.71 log | percentage of inhibition of P. aeruginosa 6294 adhesion [4, 9]: 96.64% | log inhibition of P. aeruginosa 6294 adhesion ([4]; lens treated with 10.0 μM peptide, Tear Like Fluid (TLF)): 1.47 log | dissolution in Phosphate Buffer Saline ([5]; 0.1 μM, 1.0 μM concentration): completely dissolved | dissolution in Phosphate Buffer Saline ([5]; 10.0 μM, rotary shaker at 37° C. overnight, visual inspection): completely dissolved | cytotoxicity to mammalian cells in vitro [6]: not cytotoxic

CSFSQNKSVHSFDYDWYNVSDQADLKNC (SEQ ID NO: 1) [grZ28C]
anti adherence activity on P. aeruginosa [1]: anti adherence activity | prevention of Pseudomonas aeruginosa attachment ([1]; at three concentrations: 50, 5 and 0.5 μg/ml (FIG. 1)): approximately 50% | effect on P. aeruginosa growth [2]: not inhibited
